Here are results for 1 compound from EPA's ToxValDB 9.5 (doi:10.2903/j.efsa.2013.3240).

In brackets after ≈: the same amount, converted by molar mass.

The test system of one data set is Oncorhynchus mykiss. The settings on record: acute; duration: 96 hours; mortality.
The next data set concerns Colinus virginianus. The settings on record: for NOEL: reproduction developmental, reproduction.
In a further data set the test system is Apis mellifera. The settings on record: acute; duration: 48 hours; oral; unspecified; mortality.
A further data set deals with Bibionidae. To be noted: chronic/long-term; duration: 28 days; other.
For another data set, the system named is Typhlodromus pyri. The data set is described as follows: LR50; higher = less toxic. To be noted: acute; duration: 7 days; mortality.
For the next data set, the system named is Aphidius rhopalosiphi. The data set is described as follows: LR50; higher = less toxic. The settings on record: acute; duration: 48 hours; mortality.

The term NOAEL denotes the highest dose or exposure tested at which no adverse effect was seen. `FC(F)(F)c1ccc(OCCCOc2c(Cl)cc(OCC=C(Cl)Cl)cc2Cl)nc1` [Pyridalyl]: the LC50 is 0.5 µg/mL (≈ 1.02 µM) in the data set with Oncorhynchus mykiss; 0.001 µg/mL (≈ 0.00204 µM) in the data set with Neomysis kadiakensis (acute, duration: 96 hours, mortality); 334 mg/kg-day with Colinus virginianus (acute, oral, diet, mortality); above 1000 mg/kg with Tagia sp. (acute, duration: 14 days, mortality). Besides, the NOEC with Neomysis kadiakensis (chronic/long-term, duration: 28 days, reproduction) was found to be 0.45 µg/L; in the data set on Tagia sp. (chronic/long-term, duration: 56 days, reproduction), 63 mg/kg; in the data set on Bibionidae, 12 µg/L. In addition, the LD50 was above 2250 mg/kg-day in the data set with Colinus virginianus (acute, oral, mortality); above 5000 mg/kg-day in the data set on Rattus norvegicus (acute, oral, mortality); above 100 µg/piece in the data set with Apis mellifera. The NOEL in the data set with Colinus virginianus (F) came to 11.9 mg/kg-day; with Colinus virginianus, 12.6 mg/kg-day. In addition, the NOAEL in the data set with Rattus norvegicus (chronic, duration: 2 years, body weight) came to 3.4 mg/kg-day; with Rattus norvegicus (reproduction developmental, body weight), 2.8 mg/kg-day; in the data set with Rattus norvegicus (subchronic, duration: 13 weeks, oral, hematological), 5.6 mg/kg-day. Besides, the LR50 was above 600 g/ha in the data set on Typhlodromus pyri and 458 g/ha in the data set on Aphidius rhopalosiphi.
